This is an account of results in patent US12324827B2, “Combination therapy for the treatment of migraines” (The University of Chicago, priority 2019, dated 2025).

Assay [1] deals with caudal trigeminal nucleus c-fos. Description: c-fos immunostaining of caudal trigeminal nucleus after recurrent spreading depression. To be noted: −4.5 mm from the obex, n=6/group. The format is in vivo, rat. From the text: Induction of recurrent SD followed previously published aseptic techniques from the inventors' laboratory (8, 13, 21, 25, 26, 51) (FIG. 4). Animals were anesthetized with 5% isoflurane, which was later reduced to 1.5% inhalational isoflurane in oxygen during procedures and followed previous procedures for assessing the impact of recurrent SD after pretreatment with N2B IGF-1 (21, 51)).
One day after N2B treatment and surgery, animals were again anesthetized with 5% isoflurane in oxygen that was reduced to 1.5% during recordings of CSD followed by procedures to induce recurrent CSD every 10 minutes for 90 minutes as previously described (FIG. 4) (21,51). […]
For c-fos image analyses, the 5× digitally stored TIFF files were electronically enlarged to facilitate cell counting to 6,400×6,400 pixels and adjusted for brightness/contrast equivalently between experimental group pairs using Image J (v. 1.43i; National Institutes of Health public access). c-fos labeled nuclei were manually counted by an observer blinded to experimental conditions. Only intensely stained, round or oval-shaped nuclei were counted in lamina I-II [obex through −6.0 mm, recording the average of n=3 sections (technical replicates) at each anatomical level per animal (n≥5 biological replicates/group)]. […]

Assay [2] has as its system mechanical hyperalgesia. Description: Acid saline-induced fibromyalgia model, hind paw withdrawal threshold by electronic von Frey. The assay is classed as in vivo, female Wistar rats. To be noted: nasal IGF-1 150 μg/dose on PD-2, PD-5, PD-8; experiments FM-7 and FM-8, n=3/group. The text has this: However, due to its simplicity and reproducibility, a widely-used, non-inflammatory rodent model which mimics chronic, widespread muscle pain-like behavior was utilized. This fibromyalgia model consists of two unilateral injections of acid saline into the gastrocnemius muscle which produce bilateral, long-lasting mechanical hyperalgesia for up to 4 weeks without motor deficits or tissue damage observed histologically (Sluka et al., 2001), Hind paw withdrawal thresholds obtained using an electronic von Frey device were used as a measure of “inferred pain”.
Experimental Procedures here are described utilizing intranasal IGF-1 for treatment of pain related to the acid saline-induced fibromyalgia model. […]
Testing consists of placing rats in an acrylic cage module [23 cm×24 cm×14.6 cm (W×L×H)] which rests upon an elevated wire mesh grid floor (FIG. 21). […] The force at which this response occurs is recorded automatically by the electronic device and is designated as the paw withdrawal threshold (FIG. 22). […]
Two investigators were used for all experiments. […] The second investigator recorded paw withdrawal threshold (PWT) force levels, procedures modeled after the experimental strategy reported by Martinov et al., 2013. […]
Specifically, baseline (BA) measurements of paw withdrawal threshold (PWT) were determined for six animals/experiment prior to experimental treatment. […]

Assay [3] has as its system rat hippocampal brain slice cultures. The conditions noted are these: cited from earlier work.

Entries after “also recorded” stand apart in the source; their conditions may differ.

With “IGF-1: human recombinant IGF-1 (#191-G1; R&D Systems), 150 μg in 50 μL sodium succinate buffer, delivered nose-to-brain”, in assay [1], the “relative c-fos positive cell counts (sham set to 1.00)” value is 0.52±0.11. For the same substance, the “hind paw withdrawal threshold / pain-related behavior” value in assay [2] is “significant and continued reduction in pain-related behavior; also recorded: protection against acid-induced hind paw hyperalgesia”. In addition, the “oxidative stress from menadione exposure” value in assay [3] (brain slice cultures in vitro) was “significantly reduced”. In addition, the “spreading depression in slice cultures” value in assay [3] (rat hippocampal brain slice cultures) is on record as “significantly inhibited spreading depression”.
